Experimental data reported in ChEMBL document CHEMBL4229381, “New cytokinin derivatives possess UVA and UVB photoprotective effect on human skin cells and prevent oxidative stress” (Eur J Med Chem, 2018).
pIC50: −log10 of the molar value. The source made the active and inactive calls. The rule behind the calls is not given here.

How the values were obtained:
[1] = Stability of the compound in pH 5 solution at 10^-4 M after 24 hrs by HPLC analysis; format: physicochemical; settings: read-out: Stability
[2] = Stability of the compound in pH 3 solution at 10^-4 M after 1 hr by HPLC analysis; format: physicochemical; settings: read-out: Stability
[3] = Stability of the compound in pH 4 solution at 10^-4 M after 24 hrs by HPLC analysis; format: physicochemical; settings: read-out: Stability
[4] = Stability of the compound in pH 5 solution at 10^-4 M after 1 hr by HPLC analysis; format: physicochemical; settings: read-out: Stability
[5] = Stability of the compound in pH 6 solution at 10^-4 M after 24 hrs by HPLC analysis; format: physicochemical; settings: read-out: Stability
[6] = Antioxidant activity assessed as trolox equivalent of AAPH-induced radical scavenging activity at 1 uM pretreated for 15 mins followed by […] challenge measured every 3 mins over 90 mins by ORAC-FL assay; format: functional
[7] = Stability of the compound in pH 4 solution at 10^-4 M after 1 hr by HPLC analysis; format: physicochemical; settings: read-out: Stability
Nicotiana tabacum = assay: Growth promoting activity in tobacco callus assessed as callus weight at 10^-5 mol/L after 4 weeks relative to control; format: functional
Triticum aestivum = assay: Anti-senescent activity in leaf of Triticum aestivum cv. Hereward seedlings by measuring chlorophyll retention at 10^-4 mol/L after 4 days relative to control; format: functional
[8] = Stability of the compound in pH 7 solution at 10^-4 M after 24 hrs by HPLC analysis; format: physicochemical; settings: read-out: Stability
[9] = Stability of the compound in pH 3 solution at 10^-4 M after 24 hrs by HPLC analysis; format: physicochemical; settings: read-out: Stability
[10] = Stability of the compound in pH 6 solution at 10^-4 M after 1 hr by HPLC analysis; format: physicochemical; settings: read-out: Stability
Amaranthus caudatus = assay: Growth promoting activity in Amaranthus caudatus var. atropurpurea seeds by measuring betacyanin at 10^-4 mol/L after 48 hrs relative to control; format: functional
[11] = Stability of the compound in pH 7 solution at 10^-4 M after 1 hr by HPLC analysis; format: physicochemical; settings: read-out: Stability
HaCaT [12] = assay: Phototoxicity in human HaCaT cells assessed as reduction in cell viability preincubated for 60 mins followed by 7.5 J/cm2 UVA irradiation and measured after 24 hrs by neutral red uptake assay; format: cell-based; settings: light or radiation study
NHDF [13] = assay: Phototoxicity in human NHDF cells assessed as reduction in cell viability preincubated for 60 mins followed by 5 J/cm2 UVA irradiation and measured after 24 hrs by neutral red uptake assay; format: cell-based; settings: light or radiation study
HaCaT [14] = assay: Cytoprotection against phototoxicity in human HaCaT cells assessed as increase in cell viability at 3.9 uM preincubated for 60 mins followed by 10 J/cm2 UVA irradiation and measured after 24 hrs by neutral red uptake assay; format: functional, cell-based
[15] = Cytotoxicity in human NHDF cells assessed as cell viability at 15.6 uM after 24 hrs by neutral red uptake assay relative to control; format: cell-based; settings: read-out: Activity
HaCaT [16] = assay: Cytotoxicity in human HaCaT cells assessed as reduction in cell viability at 50 uM after 24 hrs by resazurin dye-based fluorescence assay relative to control
[17] = Cytotoxicity in human NHDF cells assessed as cell viability at 7.8 uM after 24 hrs by neutral red uptake assay relative to control; format: cell-based; settings: read-out: Activity
[18] = Phototoxicity in human NHDF cells assessed as cell viability at 7.8 uM preincubated for 60 mins followed by 5 J/cm2 UVA irradiation and measured after 24 hrs by neutral red uptake assay relative to control; format: cell-based; settings: read-out: Activity
[19] = Cytotoxicity in human NHDF cells assessed as cell viability at 62.5 uM after 24 hrs by neutral red uptake assay relative to control; format: cell-based; settings: read-out: Activity
[20] = Phototoxicity in human HaCaT cells assessed as cell viability at 15.6 uM preincubated for 60 mins followed by 7.5 J/cm2 UVA irradiation and measured after 24 hrs by neutral red uptake assay relative to control; format: cell-based; settings: read-out: Activity
[21] = Phototoxicity in human NHDF cells assessed as cell viability at 3.9 uM preincubated for 60 mins followed by 5 J/cm2 UVA irradiation and measured after 24 hrs by neutral red uptake assay relative to control; format: cell-based; settings: read-out: Activity
BJ = assay: Cytotoxicity in human BJ cells assessed as reduction in cell viability at 50 uM after 24 hrs by resazurin dye-based fluorescence assay relative to control
[22] = Cytotoxicity in human HaCaT cells assessed as cell viability at 15.6 uM after 24 hrs by neutral red uptake assay relative to control; format: cell-based; settings: read-out: Activity
[23] = Cytotoxicity in human HaCaT cells assessed as cell viability at 3.9 uM after 24 hrs by neutral red uptake assay relative to control; format: cell-based; settings: read-out: Activity
[24] = Phototoxicity in human HaCaT cells assessed as cell viability at 62.5 uM preincubated for 60 mins followed by 7.5 J/cm2 UVA irradiation and measured after 24 hrs by neutral red uptake assay relative to control; format: cell-based; settings: read-out: Activity
[25] = Phototoxicity in human HaCaT cells assessed as cell viability at 125 uM preincubated for 60 mins followed by 7.5 J/cm2 UVA irradiation and measured after 24 hrs by neutral red uptake assay relative to control; format: cell-based; settings: read-out: Activity
[26] = Cytotoxicity in human HaCaT cells assessed as cell viability at 62.5 uM after 24 hrs by neutral red uptake assay relative to control; format: cell-based; settings: read-out: Activity
HaCaT [27] = assay: Potency index, ratio of compound effect to rosmarinic acid effect for cytoprotection against phototoxicity in human HaCaT cells assessed as increase in cell viability at 3.9 uM preincubated for 60 mins followed by 150 mJ/cm2 UVB irradiation and measured after 24 hrs by neutral red uptake assay; format: functional
[28] = Cytotoxicity in human NHDF cells assessed as cell viability at 31.3 uM after 24 hrs by neutral red uptake assay relative to control; format: cell-based; settings: read-out: Activity
[29] = Cytotoxicity in human NHDF cells assessed as cell viability at 3.9 uM after 24 hrs by neutral red uptake assay relative to control; format: cell-based; settings: read-out: Activity
[30] = Cytotoxicity in human HaCaT cells assessed as cell viability at 125 uM after 24 hrs by neutral red uptake assay relative to control; format: cell-based; settings: read-out: Activity
HaCaT [31] = assay: Cytoprotection against phototoxicity in human HaCaT cells assessed as increase in cell viability at 3.9 to 31.3 uM preincubated for 60 mins followed by 150 mJ/cm2 UVB irradiation and measured after 24 hrs by neutral red uptake assay; format: functional, cell-based
[32] = Cytotoxicity in human HaCaT cells assessed as cell viability at 31.3 uM after 24 hrs by neutral red uptake assay relative to control; format: cell-based; settings: read-out: Activity
[33] = Cytotoxicity in human HaCaT cells assessed as cell viability at 7.8 uM after 24 hrs by neutral red uptake assay relative to control; format: cell-based; settings: read-out: Activity
[34] = Phototoxicity in human NHDF cells assessed as cell viability at 62.5 uM preincubated for 60 mins followed by 5 J/cm2 UVA irradiation and measured after 24 hrs by neutral red uptake assay relative to control; format: cell-based; settings: read-out: Activity
[35] = Phototoxicity in human HaCaT cells assessed as cell viability at 3.9 uM preincubated for 60 mins followed by 7.5 J/cm2 UVA irradiation and measured after 24 hrs by neutral red uptake assay relative to control; format: cell-based; settings: read-out: Activity
[36] = Cytotoxicity in human NHDF cells assessed as cell viability at 125 uM after 24 hrs by neutral red uptake assay relative to control; format: cell-based; settings: read-out: Activity
[37] = Phototoxicity in human NHDF cells assessed as cell viability at 125 uM preincubated for 60 mins followed by 5 J/cm2 UVA irradiation and measured after 24 hrs by neutral red uptake assay relative to control; format: cell-based; settings: read-out: Activity
[38] = Phototoxicity in human HaCaT cells assessed as cell viability at 31.3 uM preincubated for 60 mins followed by 7.5 J/cm2 UVA irradiation and measured after 24 hrs by neutral red uptake assay relative to control; format: cell-based; settings: read-out: Activity
HaCaT [39] = assay: Potency index, ratio […] for cytoprotection against phototoxicity in human HaCaT cells assessed as increase in cell viability at 3.9 preincubated for 60 mins followed by 150 mJ/cm2 UVB irradiation and measured after 24 hrs by neutral red uptake assay; format: functional
NHDF [40] = assay: Cytoprotection against phototoxicity in human NHDF cells assessed as increase in cell viability at 3.9 to 31.3 uM preincubated for 60 mins followed by 150 mJ/cm2 UVB irradiation and measured after 24 hrs by neutral red uptake assay; format: functional, cell-based
[41] = Phototoxicity in human NHDF cells assessed as cell viability at 31.3 uM preincubated for 60 mins followed by 5 J/cm2 UVA irradiation and measured after 24 hrs by neutral red uptake assay relative to control; format: cell-based; settings: read-out: Activity
[42] = Phototoxicity in human NHDF cells assessed as cell viability at 15.6 uM preincubated for 60 mins followed by 5 J/cm2 UVA irradiation and measured after 24 hrs by neutral red uptake assay relative to control; format: cell-based; settings: read-out: Activity
[43] = Phototoxicity in human HaCaT cells assessed as cell viability at 7.8 uM preincubated for 60 mins followed by 7.5 J/cm2 UVA irradiation and measured after 24 hrs by neutral red uptake assay relative to control; format: cell-based; settings: read-out: Activity

c1nc(NCC2CCCO2)c2ncn(C3CCCO3)c2n1 (stereo unspecified)
remaining at 24 h, 100 µM [1]: 92.6% | remaining at 1 h, 100 µM [2]: 94.3% | remaining at 24 h, 100 µM [3]: 44.3% | remaining at 1 h, 100 µM [4]: 100% | remaining at 24 h, 100 µM [5]: 100% | Activity [6]: < 0.05 equiv | remaining at 1 h, 100 µM [7]: 100% | Activity (Nicotiana tabacum): 100% | Activity (Triticum aestivum): 116% | remaining at 24 h, 100 µM [8]: 100% | remaining at 24 h, 100 µM [9]: 0.4% | remaining at 1 h, 100 µM [10]: 100% | Activity (Amaranthus caudatus): 38% | remaining at 1 h, 100 µM [11]: 100%

CN(C)CCCN1c2ccccc2Sc2ccc(Cl)cc21 [CHLORPROMAZINE]
pIC50 (HaCaT [12]): 4.44 | pIC50 (NHDF [13]): 4.59

Clc1nc(NCC2CCCO2)c2ncn(C3CCCO3)c2n1 (stereo unspecified)
Activity (HaCaT [14]): inactive | viability at 24 h, 15.6 µM [15]: 101% | Activity (HaCaT [16]): < 10% | viability at 24 h, 7.8 µM [17]: 103% | viability at 24 h, 7.8 µM [18]: 103% | viability at 24 h, 62.5 µM [19]: 102% | viability at 24 h, 15.6 µM [20]: 110% | viability at 24 h, 3.9 µM [21]: 100% | Activity (BJ): < 10% | viability at 24 h, 15.6 µM [22]: 104% | viability at 24 h, 3.9 µM [23]: 104% | viability at 24 h, 62.5 µM [24]: 126% | viability at 24 h, 125 µM [25]: 126% | viability at 24 h, 62.5 µM [26]: 111% | Ratio (HaCaT [27]): >2 | viability at 24 h, 31.3 µM [28]: 106% | Activity [6]: < 0.05 equiv | viability at 24 h, 3.9 µM [29]: 103% | viability at 24 h, 125 µM [30]: 111% | Activity (Nicotiana tabacum): 104% | Activity (Triticum aestivum): 111% | Activity (HaCaT [31]): Active | viability at 24 h, 31.3 µM [32]: 109% | viability at 24 h, 7.8 µM [33]: 103% | viability at 24 h, 62.5 µM [34]: 105% | viability at 24 h, 3.9 µM [35]: 105% | viability at 24 h, 125 µM [36]: 104% | viability at 24 h, 125 µM [37]: 105% | viability at 24 h, 31.3 µM [38]: 121% | Ratio (HaCaT [39]): >2 | Activity (NHDF [40]): Active | Activity (Amaranthus caudatus): 83% | viability at 24 h, 31.3 µM [41]: 103% | viability at 24 h, 15.6 µM [42]: 100% | viability at 24 h, 7.8 µM [43]: 112%
